Tests used:
[1] = Ligand facilitated Fe(III) efflux from liposomes; format: biochemical; design: unit not given here; settings: efflux rate k at 10 μM ligand concentration; ferrozine absorbance 562 nm, 120 min kinetic read
Protocol: Assay 1: Ligand Facilitated Fe(III) Efflux from Liposomes
Preparation of POPC (1 palmitoyl-2-oleoyl-sn-glycero-3 phosphocholine): Cholesterol Liposomes
A 1M buffer solution of MES and Tris was prepared by dissolving 121.14 grams of Tris base and 213.25 grams of MES hydrate in 500 mL of MilliQ water and adjusted to pH7.0 using an […] HCl solution before bringing the total volume of the solution to 1 L. A 500 mM solution of FeCl3 was prepared by dissolving 0.811 grams of anhydrous FeCl3 in 10 mL of a 0.1M H2SO4 aqueous solution. Inside buffer is prepared in a 50 mL falcon tube, which was added with 25 mL of MilliQ water, 1.61 g of sodium citrate, 1.5 mL of the above FeCl3 solution, and 2.5 mL of the 1M MES/Tris HCl buffer (pH=7.0), and finally additional MilliQ H2O to bring to a 50 mL final volume.
Lipid solution is prepared by dissolving 206.9 mg of POPC (1-palmitoyl-2-oleoyl-sn-glycero-3-phosphocholine) and 8.6 mg of cholesterol in 10 mL of ethanol.
The lipids solution and the inside buffer solution are independently loaded into 10 mL luer lock syringes for loading into a virgin cartridge on a Precision Nanosystems NanoAssembler to prepare unilamaller liposomes with the following parameters: 7.5 mL total volume, 1.5:1 mixing ratio of inside buffer:lipids solution, 8 mL/min flow rate, ambient temperature, 0.35 mL start waste, and 0.05 mL of end waste. 7.5 mL of liposomes is harvested for purification on a 6-inch long, 1-inch diameter Sephadex G-50 column wetted in 600 mM sodium ascorbate and 50 mM MES/Tris HCl pH 7.0 buffer. This buffer also serves as the column running buffer. The crude liposome solution is carefully loaded with minimal volume of running buffer above the top of the Sphadex, allowed to enter the matrix, and the column is run with the continued addition of running buffer. The eluting liposomes, observed as a milky and turbid solution, are collected until free iron begins to elute (observed as a deep purple color) and the fractions are pooled for phosphorus quantitation.
Determination of Phosphorus Content:
Phosphorus content of eluted liposomes was determined by the process outlined below. 10 μL of liposome elution and a running buffer blank are added to a 5 mL glass vial containing 450 μL of a 8.9 M aqueous H2SO4 solution, the mixture is heated to 225° C. for 25 minutes in an aluminum heat block to hydrolyze POPC and cooled for 5 minutes. 200 μL of a 30% hydrogen peroxide aqueous solution is added to each vial and heated to 225° C. for 25 minutes. After cooling, the phosphorus content was determined using an Abcam Phosphate Assay kit, with buffer subtracted phosphorus levels determined against a standard curve of phosphate included in the kit. Liposomes were diluted to 1 mM phosphate in Running Buffer for use in assays after accounting for dilutions made during phospholipid digestion.
Determination of the Iron Transporting Rate Constant of the Ligands:
Determination of the rate at which a small molecule ligand liberates (transport) Ferric iron from liposomes is performed in clear bottom black 384-well plates on a Spectramax i3x set to read the absorbance at 562 nm in the kinetic mode every 60 seconds for 120 minutes. 1 μL of serially diluted DMSO stock solution of a small molecule ligand is added to wells in triplicate to give the final concentrations of 40, 20, 10, 5, 2.5, and 1.25 uM of the ligand at 80 μL final volume, followed by addition of 1 μL of 100 mM Ferrozine in water to give a final concentration of 1 mM ferrozine. 78 μL of liposomes diluted to 1 mM phosphorus in running buffer is added to wells as quickly as possible (using a digital repeater multichannel pipette) with the kinetic read initiated as rapidly as possible after addition of liposomes to all wells. Typically, eight compounds at six concentrations are tested in triplicate simultaneously. […]

[2] = test system: DMT1-deficient Caco-2 cells; experiment: shDMT1-Caco2 55Fe transport assay; format: cell-based; settings: Caco-2
From the text: Assay 2: shDMT1-Caco2 ^55Fe Transport Assay to Assess Ligand Ability in Transporting Fe (III)
Cells: DMT1-deficient Caco-2 cells (alias: “shDMT1,” or “4A” cells) were from Grillo et al. Science, 2017, and were cryopreserved in liquid nitrogen prior to use.
Reagents and supplies: ^55FeCl3 was obtained from PerkinElmer (Boston, MA). Iron(III) chloride (FeCl3) hexahydrate was obtained from Sigma. Dulbecco's Modified Eagle Medium (DMEM), fetal bovine serum (FBS), L-glutamine, MEM nonessential amino acids, penicillin-streptomycin, G418, formic acid, methanol, high-purity water, ammonium formate, dimethyl sulfoxide (DMSO) were purchased from Fisher Scientific. Propranolol, atenolol and carbutamide were obtained from Sigma-Aldrich Chemical Company (St Louis, MO). Scintillation cocktail was obtained from Research Product International Co. (Mount Prospect, IL). Stericup filter system (PES membrane, 0.22 um pore size) was purchased from Fisher Scientific. Corning item #3378 24-well transwell insert plates.
Test articles: known compounds hinokitiol and deferiprone were purchased from Sigma. They are tested side by side with the small molecule ligands disclosed in this application. DMSO stocks (10 mM, which is 1,000× of the 10 μM dose level) of hinokitiol or test articles were prepared. A stock solution of 25 mM deferiprone in DMSO was prepared. The DMSO stock solutions were stored at −20° C. or below when not in use.
The growth medium was prepared according to the following table
Apical media (serum free DMEM, 10 mM MES, pH 6.5) was prepared. Apical master mix media was prepared fresh with the addition of 200 nM ^55Fe before each experiment. For the negative control propranolol and atenolol wells, 200 nM of non-radioactive iron was used.
The basolateral media was serum-free DMEM, 10 mM HEPES, 2% bovine serum albumin (BSA), pH 7.4.
For each experiment, cells were seeded into the 24-well transwell plates (0.5 mL of 50,000 cells/mL) with growth media. The basolateral companion plate was loaded with 1 mL of growth media. After 12-24 hr, both the apical and basolateral chamber were replaced with growth media. The apical media was changed 3× per week for 21-28 days, including a media change exactly 48 hr before the assay date.
On the assay day, the TEER values were measured and the average TEER value was obtained. Individual wells with TEER value >35% lower than the average of all wells were excluded. For the qualified wells, the apical layer (twice) and basolaterial (once) chambers were washed with PBS. The basolateral companion plate was then filled with 1 mL of basolateral media. Via addition down the side-wall of the apical well, 300 μL per well of the apical assay master mix, with the indicated dose level of test article, was added. Each dose was tested in triplicate. The plates were incubated (5% CO2 and 90% humidity at 37° C.) for the indicated timepoints. At each indicated timepoint, the basolateral supernatant was gently mixed via pipetting, and 200 μL of the basolateral supernatant was transferred to scintillation vials. To each scintillation counting vial, 5 mL of scintillation cocktail fluid was added. For each scintillation vial, the radioactivity (CPM) was determined with liquid scintillation counter LS6500. The counting time per vial was 5 min.
All raw CPM values are divided by the average value of blank DMSO solution to give a fold of change above the DMSO value. The mean and standard deviation of each compound at each concentration level and at each time point measured was calculated to give the fold change (fc) value. For rank order compounds, the fc value of a ligand at 4 h time point is further divided by the fold change (fc) value of hinokitiol (a positive control compound) at an equimolar concentration to arrive at the FC (normalized fold of change) value. Data reported in Tables 1 and 2 is 4 hr time point FC=fc-ligand @ 3 uM/fc-hino @ 3 μM, and FC hino=1.

Caco2 shDMT1 transport FC @ 3 μM, 4 h [2]	SMILES	Liposome Fe transport kefflux at 10 μM [1]
0.01-0.5	O=c1c(O)ccccc1F	0.1-5
0.01-0.5	O=c1ccc(C2CC3CCC(C2)O3)ccc1O (stereo not drawn)	0.1-5
0.01-0.5	O=c1ccc(C2CCOCC2)ccc1O	0.1-5
0.01-0.5	O=c1cccc(C2CCOCC2)cc1O	10-25
1-5	O=c1ccccc(C2CCCCO2)c1O (stereo not drawn)	0.1-5
1-5	O=c1ccc(OC2CCC2)ccc1O	10-25
0.01-0.5	CC(C)Oc1ccc(O)c(=O)cc1	7.5-10
0.01-0.5	CCOc1ccc(O)c(=O)cc1	7.5-10
0.5-1	CC(C)Oc1cccc(=O)c(O)c1	5-7.5
0.01-0.5	COc1cccc(=O)c(O)c1	5-7.5
0.5-1	CCOc1cccc(=O)c(O)c1	5-7.5
1-5	Cc1cccc(C)c(=O)c1O	10-25
1-5	Cc1ccc(O)c(=O)c(C)c1	5-7.5
1-5	Cc1ccc(C)c(=O)c(O)c1	0.1-5
0.5-1	Cc1ccc(C2CC2)cc(O)c1=O	7.5-10
0.5-1	Cc1c(C2CC2)cccc(=O)c1[O-].[Na+]	0.1-5
1-5	Cc1cc(C2CC2)ccc(O)c1=O	0.1-5
1-5	CCc1ccc(O)c(=O)c(C)c1	5-7.5
0.5-1	CCc1ccc(C)c(=O)c(O)c1	5-7.5
0.5-1	Cc1ccc(C(C)C)cc(O)c1=O	0.1-5
0.01-0.5	Cc1ccc(F)c(=O)c([O-])c1.[Na+]	0.1-5

Caco2 shDMT1 transport FC @ 3 μM, 4 h [2]	SMILES	Liposome Fe transport kefflux at 10 μM [1]
0.01-0.5	O=c1c(F)cccc(C2CCCO2)c1O (stereo not drawn)	5-7.5
0.01-0.5	Cc1ccc(C(F)(F)F)c(=O)c(O)c1	7.5-10
0.01-0.5	CC(C)c1ccc(C(F)(F)F)c(=O)c(O)c1	5-7.5
0.01-0.5	Cc1ccc(O)c(=O)c(C(F)(F)F)c1	10-25
1-5	O=c1ccccc(C2CCCO2)c1O (stereo not drawn)	10-25
0.1-5	O=c1ccccc([C@H]2CCCO2)c1O	7.5-10
0.1-5	O=c1ccccc([C@@H]2CCCO2)c1O	7.5-10
0.01-0.5	O=c1cccc(C2CCCO2)cc1O (stereo not drawn)	7.5-10
0.01-0.5	O=c1ccc(C2CCCO2)ccc1O (stereo not drawn)	7.5-10
0.01-0.5	O=c1ccc(C2CC3CC3C2)ccc1O (stereo not drawn)	5-7.5
0.01-0.5	CC1(C)CCC(c2cccc(=O)c(O)c2)C1 (stereo not drawn)	5-7.5
0.01-0.5	O=c1ccc(C2CCC2)ccc1O	10-25
0.01-0.5	O=c1ccc([C@@H]2CCC[C@H]2O)ccc1O	7.5-10
0.01-0.5	CCOC(=O)N1CCC(c2ccc(O)c(=O)cc2)CC1	5-7.5
0.01-0.5	CC(=O)N1CCC(c2ccc(O)c(=O)cc2)CC1	5-7.5
0.01-0.5	O=c1ccccc(C2CCOC2)c1O (stereo not drawn)	<0.1
0.01-0.5	O=c1cccc(OC2COC2)cc1O	0.1-5
0.01-0.5	Cc1ccc(O)c(=O)c(F)c1	0.1-5
0.01-0.5	O=c1ccccc(C2CCCO2)c1S (stereo not drawn)	7.5-10
0.01-0.5	CCc1cccc(F)c(=O)c1O	10-25
0.5-1	O=c1ccc(OC2CC2)ccc1O	10-25

— US20230406803A1, “TROPOLONE DERIVATIVES AND TAUTOMERS THEREOF FOR IRON REGULATION IN ANIMALS” (Kinesid Therapeutics, Inc, priority 2020, published 2023)
